These results are taken from patent publication US9763961B2, “Compositions that modulate the activity of estrogen receptors and estrogen-related receptors and methods for use” (CITY OF HOPE, priority 2005, dated 2017).

One experiment deals with T1, ERα (Homo sapiens, UniProt P03372).
T1 construct: expressed in transfected cells; host or cells: HeLa
T1 sequence (P03372 1-595): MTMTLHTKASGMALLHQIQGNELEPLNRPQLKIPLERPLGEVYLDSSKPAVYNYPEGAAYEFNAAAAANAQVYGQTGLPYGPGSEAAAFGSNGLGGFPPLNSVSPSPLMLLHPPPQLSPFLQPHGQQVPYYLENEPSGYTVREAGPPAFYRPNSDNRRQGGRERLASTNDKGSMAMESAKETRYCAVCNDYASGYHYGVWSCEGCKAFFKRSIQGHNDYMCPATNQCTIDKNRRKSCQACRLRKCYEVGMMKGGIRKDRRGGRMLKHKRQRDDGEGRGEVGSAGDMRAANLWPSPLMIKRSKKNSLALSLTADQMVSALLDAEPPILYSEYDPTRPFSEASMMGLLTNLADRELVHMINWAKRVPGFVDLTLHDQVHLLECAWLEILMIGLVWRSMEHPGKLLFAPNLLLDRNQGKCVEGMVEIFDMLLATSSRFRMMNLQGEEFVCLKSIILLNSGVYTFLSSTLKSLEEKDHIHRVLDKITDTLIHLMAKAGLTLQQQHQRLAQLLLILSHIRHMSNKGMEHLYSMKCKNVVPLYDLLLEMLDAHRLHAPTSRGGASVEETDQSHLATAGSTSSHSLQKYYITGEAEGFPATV
Put plainly: Transient transfection luciferase assay with pSG5-ERa and ERE-SV40 reporter in HeLa cells, with 100 pM estradiol. In kind it is cell-based.

Experiment [1] concerns the target T2, ERRβ (Homo sapiens, UniProt O95718).
T2 construct: expressed in transfected cells; host or cells: HeLa
T2 sequence (O95718 1-433): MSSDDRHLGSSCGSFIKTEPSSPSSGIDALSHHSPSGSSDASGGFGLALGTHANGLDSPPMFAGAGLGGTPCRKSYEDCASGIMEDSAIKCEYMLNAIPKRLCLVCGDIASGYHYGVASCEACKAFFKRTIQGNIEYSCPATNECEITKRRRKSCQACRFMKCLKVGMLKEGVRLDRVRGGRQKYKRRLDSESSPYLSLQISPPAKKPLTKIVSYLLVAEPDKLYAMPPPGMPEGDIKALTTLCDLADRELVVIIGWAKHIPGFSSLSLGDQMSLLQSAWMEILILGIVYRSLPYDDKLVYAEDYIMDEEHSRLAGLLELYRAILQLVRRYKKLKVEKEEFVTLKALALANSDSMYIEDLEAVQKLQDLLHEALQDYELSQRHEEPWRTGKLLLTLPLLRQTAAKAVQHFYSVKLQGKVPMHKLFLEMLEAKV
Kind of experiment: Transient transfection luciferase assay with pSG5-ERRb and SF1-SV40 reporter in HeLa cells. The format is cell-based.

In another experiment the target is T3, ERβ (Homo sapiens, UniProt Q92731).
T3 construct: expressed in transfected cells; host or cells: HeLa
Kind of experiment: Transient transfection luciferase assay with pCI-ERb and ERE-SV40 reporter in HeLa cells, with 100 pM estradiol. The format is cell-based.

Experiment [2] deals with T4, GAL4-human ERRα LBD fusion (Homo sapiens, UniProt P11474).
T4 construct: GAL4-human ERRα LBD fusion expression plasmid; expressed in transfected cells; host or cells: HeLa
T4 sequence (P11474 193-421 limits assumed): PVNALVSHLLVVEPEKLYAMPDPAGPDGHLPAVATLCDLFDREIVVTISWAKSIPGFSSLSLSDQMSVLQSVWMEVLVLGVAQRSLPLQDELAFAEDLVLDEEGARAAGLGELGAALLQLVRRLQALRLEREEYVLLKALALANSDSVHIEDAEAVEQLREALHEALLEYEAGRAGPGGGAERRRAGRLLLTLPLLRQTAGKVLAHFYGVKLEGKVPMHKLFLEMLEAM
Kind of experiment: Transient transfection luciferase assay, GAL4-human ERRα LBD fusion with Gal4-TK-Luc reporter in HeLa cells. In kind it is cell-based. The settings on record: pM-ERRα LBD, 24 h, mean ± SD. How it is done: Referring to FIG. 2, we have also prepared GAL4-ERRα expression plasmid and luciferase reporter plasmids with GAL4 response element. This is a more sensitive assay method than that using pSG5-ERRα and ERE luciferase reporter plasmids.
(§1) To evaluate the functional significance of the interaction of chalcones with ERRα, we incubated these compounds with HeLa cells which were transiently transfected with human ERRα expression plasmid and a luciferase reporter plasmid containing SF1 binding site. […] In order to confirm the results above, HeLa cells were transiently transfected with GAL4-human ERRα LBD fusion expression plasmid and a luciferase reporter plasmid containing GAL4 binding site. […] Most of the compounds, however, have similar IC50 value, and have a similar potency.
Referring to FIG. 2, HeLa cells were cotransfected with pM-ERRα LBD (0.5 μg) and luciferase reporter plasmid containing GAL4 binding site and TK promoter (0.25 μg). The transfected cells were incubated with Compound No. 1-9 for 24 h. After cells were washed with 1× PBS, luciferase activity was measured. Values represent the mean±SD.

For experiment [3], the target named is T5, ERRγ (Homo sapiens, UniProt P62508).
T5 construct: expressed in transfected cells; host or cells: HeLa
T5 sequence (P62508 1-458): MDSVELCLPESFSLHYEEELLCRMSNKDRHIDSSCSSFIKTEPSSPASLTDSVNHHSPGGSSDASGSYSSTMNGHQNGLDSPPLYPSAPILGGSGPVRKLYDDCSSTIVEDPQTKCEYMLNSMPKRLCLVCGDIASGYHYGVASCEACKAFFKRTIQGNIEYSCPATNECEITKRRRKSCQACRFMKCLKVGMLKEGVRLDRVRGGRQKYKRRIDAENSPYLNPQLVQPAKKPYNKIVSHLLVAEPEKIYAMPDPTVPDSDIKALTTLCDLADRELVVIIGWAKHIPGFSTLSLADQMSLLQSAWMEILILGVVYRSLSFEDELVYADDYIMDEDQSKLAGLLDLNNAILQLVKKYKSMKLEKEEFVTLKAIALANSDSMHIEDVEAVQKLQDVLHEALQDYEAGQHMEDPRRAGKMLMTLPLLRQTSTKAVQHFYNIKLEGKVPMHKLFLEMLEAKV
Put plainly: Transient transfection luciferase assay with pSG5-ERRg and SF1-SV40 reporter in HeLa cells. The format is cell-based.

The target of the next experiment is T6, human ERRα-1 (Homo sapiens, UniProt P11474).
T6 construct: expressed in transfected cells; host or cells: HeLa
T6 sequence (P11474 1-423): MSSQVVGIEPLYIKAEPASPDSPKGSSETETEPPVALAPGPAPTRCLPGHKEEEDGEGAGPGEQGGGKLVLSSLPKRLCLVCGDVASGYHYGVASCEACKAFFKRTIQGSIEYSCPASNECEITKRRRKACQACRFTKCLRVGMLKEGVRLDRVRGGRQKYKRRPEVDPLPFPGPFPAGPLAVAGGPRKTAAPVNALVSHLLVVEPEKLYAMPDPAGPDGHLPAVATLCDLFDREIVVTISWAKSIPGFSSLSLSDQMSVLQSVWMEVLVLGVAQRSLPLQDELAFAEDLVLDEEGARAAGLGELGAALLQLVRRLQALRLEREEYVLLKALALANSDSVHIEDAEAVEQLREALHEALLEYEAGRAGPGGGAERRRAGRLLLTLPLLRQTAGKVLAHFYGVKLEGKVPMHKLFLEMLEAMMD
Put plainly: Transient transfection luciferase assay, full length human ERRα with SF1-SV40-Luc reporter in HeLa cells. In kind it is cell-based. The settings on record: HeLa cells. How it is done: HeLa cells were cultured in MEM Earle's salts medium supplemented with 5% charcoal/dextran-treated fetal bovine serum. Cells were then divided and cultured in 6-well plates until 80% confluence was achieved. The cells were next transfected with 4 μg Lipofectin. An equal amount of total DNA was used in all transfections by including appropriate amounts of the empty vector, pSG5, in addition to specific amounts of pSG5-ERRα and luciferase reporter plasmids (ERRE (ERRα recognizes an ERE half site)-containing reporter and aromatase promoter I.3-containing reporter). Following an overnight incubation, the medium containing Lipofectin and DNA was removed, and the cells cultured in a growth medium containing 5% charcoal/dextran-treated fetal bovine serum with or without ligands. After a 24-hour incubation, the cells was harvested from the plates by scraping, and the luciferase activities in the cell lysates (with the same amounts of protein) was measured according to the manufacturer's instructions (Promega). All experiments were performed in triplicate.
as §1
Referring to FIG. 1, HeLa cells were cotransfected with pSG5-ERRα (0.5 μg) and luciferase reporter plasmid containing SF1 binding site and SV40 promoter (0.25 μg). The transfected cells were incubated with Compound No. 1-9 for 24 h. After cells were washed with 1× PBS, luciferase activity was measured. Values represent the mean±SD.

A further experiment deals with ER. The conditions noted are these: cited from earlier work.
Experiment [4] has as its target T5, ERRγ. Kind of experiment: Relative luciferase activity for ERRγ (FIG. 8). In kind it is cell-based.
The target of experiment [5] is T2, ERRβ. Kind of experiment: Relative luciferase activity for ERRβ (FIG. 8). In kind it is cell-based.
The target in a further experiment is T7, ERRα (Homo sapiens, UniProt P11474).
T7 sequence (P11474 1-423): T6 sequence (P11474 1-423)
Put plainly: Relative luciferase activity for ERRα (FIG. 8). Further details: endogenous in cells; host or cells: SK-BR-3. In kind it is cell-based.

[6] abbreviates: HeLa cells, in the presence of 100 pM of estradiol, 24 h.
[7] abbreviates: HeLa cells, 24 h, average of at least two experiments.

T3 sequence (Q92731 whole entry, species assumed): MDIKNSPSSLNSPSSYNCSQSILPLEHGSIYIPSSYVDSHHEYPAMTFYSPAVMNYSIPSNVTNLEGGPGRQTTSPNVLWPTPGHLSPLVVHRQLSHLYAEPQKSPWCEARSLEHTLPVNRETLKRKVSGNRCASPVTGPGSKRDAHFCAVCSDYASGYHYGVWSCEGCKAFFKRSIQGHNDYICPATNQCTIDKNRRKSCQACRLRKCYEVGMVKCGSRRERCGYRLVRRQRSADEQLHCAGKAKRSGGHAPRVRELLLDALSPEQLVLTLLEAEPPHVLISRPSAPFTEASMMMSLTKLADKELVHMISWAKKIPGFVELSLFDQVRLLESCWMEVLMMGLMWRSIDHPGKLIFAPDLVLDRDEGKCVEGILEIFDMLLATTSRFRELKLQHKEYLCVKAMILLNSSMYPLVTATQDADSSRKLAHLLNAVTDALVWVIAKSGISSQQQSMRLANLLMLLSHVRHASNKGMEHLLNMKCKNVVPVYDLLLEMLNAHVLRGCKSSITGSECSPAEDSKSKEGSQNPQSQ

Turning to `COc1ccc(C(=O)/C=C/c2ccccc2OC)c(O)c1` [7-2], the half-inhibitory concentration (IC50) at ERα (setting [6]) came to 7.8 µM; against ERRβ [1] (setting [7]) it was 6.7 µM; on ERβ (setting [6]), 15 µM; in experiment [2] it was 2e+06 ± 700000 pM; on ERRγ [3] (setting [7]), 8 µM; against human ERRα-1 (pSG5-ERRα, 24 h, mean ± SD) it was 8.3 ± 0.4 µM. Moreover, the “Antagonistic properties on ERa (in words)” value at ERα (transient transfection) is recorded as “showed antagonistic properties”. Also, the “Antagonistic properties on ERRb (in words)” value at ERRβ [1] (transient transfection) is listed as “showed antagonistic properties”. Moreover, the “Antagonistic properties on ERb (in words)” value on ERβ (transient transfection) is “showed antagonistic properties”. In addition, the “Antagonistic properties on ERRg (in words)” value on ERRγ [3] (transient transfection) is given as “showed antagonistic properties”. Besides, at human ERRα-1 (SF1 binding site reporter, FIG. 1), the “Antagonism of constitutive activity of ERRα (in words)” value is “antagonists of ERRα”.

As to `CC/C(=C(/c1ccc(O)cc1)c1ccc(OCCN(C)C)cc1)c1ccccc1` [E-4-OHT], the “Affinity for ER relative to Z-4-OHT” value in the experiment with ER is on record as “about 5%”.

Take `O=C(/C=C/c1ccc(O)cc1)c1ccc(O)cc1O` [Compound No. 3-15, 4,2′,4′-trihydroxychalcone]: the “Agonist activity on ERRγ” value on ERRγ [4] is on record as “agonist of all three forms of ERRs”. The “Agonist activity on ERRβ” value on ERRβ [5] is “agonist of all three forms of ERRs”. In addition, the “Agonist activity on ERRα” value on ERRα was “agonist of all three forms of ERRs”.

The IC50 is the concentration at which inhibition is half-maximal.
